A short description of data set [1]: Bioavailability and pharmacokinetic profile at oral administration to laboratory mice. It counts as in vivo, outbred mice CD-1. The note with it: intragastric single dose 200 μl, soluble cyclodextrin formulation. As to the method:
Determination of Bioavailability and Pharmacokinetic Profile at Oral Administration of the Compounds to Laboratory Mice
Soluble cyclodextrin formulations of terpenoid compounds, prepared in accordance with the aforementioned methods A or B, were administered without dilution to outbred mice CD-1 intragastrically (200 μl in a single dose) as aqueous solutions by injection syringe equipped with a gastric tube. Insoluble compounds were administered intragastrically as well (200 μl in a single dose), but in the form of aqueous suspensions in 0.5-1% carboxymethyl cellulose. In time intervals 2, 4, 6, 8, 12 and 24 h, blood was taken from the mice, the blood was centrifuged and the obtained plasma was subsequently analysed by HPLC-ESI MS technique.
(§1) HPLC-ESI MS technique was used or the determination of the concentration of dissolved triterpenoids. The samples were measured in one analytical batch with calibration solutions and blind control. The sample for the measurement was prepared from 50 μl of aqueous solution containing the inclusion compound by dilution with methanol to the volume of 10 ml. Subsequently, 10 μl of the sample solution after the first dilution is further diluted to 1 ml by the mobile phase. The blind control was obtained from 50 μl of pre-prepared aqueous solution of 2-hydroxypropyl-γ-cyklodextrin by dilution with methanol to 10 ml. Subsequently, 10 μl of the blind control solution after the first dilution is further diluted to 1 ml by methanol. Stock solutions of standards (concentration 0.2 mg/ml) were prepared by weighing 2.00 mg of analyte to 10 ml graduated flask and dissolution in methanol. The calibration samples were then prepared by dilution of the stock solution with mobile phase (0.4 μg/ml resp. 4 μg/ml).
The analysis was carried out at ODS Hypersil 125×2.1 mm, 5 um, SN 0745415X, Thermo EC column, ODS 4.0×3.0 mm precolumn, Phenomenex, mobile phase A—100 mmol/L aqueous solution of ammonium formate, pH is adjusted to 5 by formic acid, B—100 mmol/L methanolic solution of ammonium formate, column temperature: 25° C., linear gradient or isocratic elution, injected volume 30 μl. The concentration was determined by comparison with standard and calculated to the original solution containing the inclusion compound.

A short description of data set [2]: Concentration of dissolved triterpenoid in the aqueous cyclodextrin solution (HPLC-ESI MS). It is filed as physicochemical. The note with it: 2-hydroxypropyl-γ-cyclodextrin, 50° C. On the procedure: Into the resulting colourless, viscous solution, soluble triterpene derivative (1.50 g) is added at once and the mixture is again vigorously stirred at the temperature of 50° C. […] After the triterpenoid is completely dissolved, the resulting clear solution is cooled to room temperature, filtered with a syringe filter (hydrophilic, pore size 0.22 μm) in order to be sterile and is placed in a refrigerator.
Method B: In a mixture of water (14.0 ml) and propylene glycol (6.0 ml), 2-hydroxypropyl-γ-cyklodextrin (7.00 g) is dissolved at the temperature of 50° C. under vigorous stirring. Into the resulting colourless, viscous solution, soluble triterpene derivate (1.00 g) is added at once and is again vigorously stirred at the temperature of 50° C. […] After the triterpenoid is completely dissolved, the resulting clear solution is cooled to room temperature, filtered with a syringe filter (hydrophilic, pore size 0.22 μm) in order to be sterile and is placed in a refrigerator.
Analytic Determination of the Concentration of Dissolved Triterpenoids in the Application Form and in Plasma Samples
as §1
The concentration was determined by comparison with standard and calculated to the original solution containing the inclusion compound.

The mark [3] stands for this setting: solution method A: water, saturated sodium hydrogencarbonate solution, ethanol.

Each structure is given as a SMILES string.

Results on seven compounds are retold here after patent US8653056B2, “Method of preparation of a soluble formulation of water-insoluble pentacyclic and tetracyclic terpenoids, a soluble formulation of a pentacyclic or tetracyclic terpenoid and a pharmaceutical composition containing this soluble formulation” (Univerzita Karlova V Praze, Prirodovedecka Fakulta, priority 2006, dated 2014).

For the compound `C=C(C)[C@@H]1CC[C@]2(C(=O)OC)CC[C@]3(C)[C@H](CC[C@@H]4[C@@]5(C)CC[C@H](OC(=O)CCCC(=O)O)C(C)(C)[C@@H]5CC[C@]43C)[C@@H]12` [2i], the oral availability entry in data set [1] is recorded as “prove oral availability”. Besides, in data set [2] (setting [3]), the “Conc. of dissolved substance” value came to 51000 µg/mL.
On the same counts, the results for `C=C(C=O)[C@@H]1CC[C@]2(C(=O)OCC)CC[C@]3(C)[C@H](CC[C@@H]4[C@@]5(C)CC[C@H](OC(=O)CCC(=O)O)C(C)(C)[C@@H]5CC[C@]43C)[C@@H]12` [3b] are “prove oral availability” and 55000 µg/mL.
Regarding `CCOC(=O)[C@@]12CC[C@]3(C)[C@H](CC[C@@H]4[C@@]5(C)CC[C@H](O[C@@H]6O[C@H](CO)[C@@H](O)[C@H](O)[C@H]6O)C(C)(C)[C@@H]5CC[C@]43C)C1=C(C(C)C)C(=O)C2` [4i], the oral availability entry in data set [1] is “prove oral availability”. Also, the “Conc. of dissolved substance” value in data set [2] (solution method B: water, propylene glycol) was 56000 µg/mL.
For the compound `CC(C)C1=C2[C@H]3CC[C@@H]4[C@@]5(C)CC[C@H](OC(=O)CC(C)(C)C(=O)O)C(C)(C)[C@@H]5CC[C@@]4(C)[C@]3(C)CC[C@@]2(C(=O)O)CC1=O` [4t], in data set [1], the oral availability result was “prove oral availability”. Besides, the “Conc. of dissolved substance” value in data set [2] (setting [3]) was found to be 49000 µg/mL.
On the same counts, the results for `COC(=O)[C@@]12CC[C@]3(C)[C@H](CC[C@@H]4[C@@]5(C)CC[C@H](OC(=O)CCC(=O)O)C(C)(C)[C@@H]5CC[C@]43C)C1=C(C(C)C)C(=O)C2=O` [5a] are “prove oral availability” and 50000 µg/mL.
On the same counts, the results for `C=C(C)[C@@H]1CC[C@]2(C(=O)OCC(=O)O)CC[C@]3(C)[C@H](CC[C@@H]4[C@@]5(C)Cc6nccnc6C(C)(C)[C@@H]5CC[C@]43C)[C@@H]12` [6a] are “prove oral availability” and 56000 µg/mL.
For `CC1(C)CCC23CCC4(C)C(CCC5C6(C)CC(NC(=O)CCC(=O)O)C(O)C(C)(C)C6CCC54C)C2C1OC3` (centres unmarked) [8a], in that order: “prove oral availability” and 37000 µg/mL.
